Assay results published in PubChem BioAssay AID328 (DTP/NCI, 2004).
Values joined by “and” are separate entries in the source; they are usually repeats but may differ in a detail not shown here. Equal entries are not always repeated. Toxic doses and inconclusive results are not listed.

Tested on: BDF1 mice, P388 leukemia ip, median survival T/C
Assay: NCI In Vivo Anticancer Drug Screen. Data for tumor model P388 Leukemia (intraperitoneal) in B6D2F1 (BDF1) mice
Settings: endpoint: median survival time, higher = longer survival
Method in brief: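 Transplantable tumour in mice; compound vs vehicle dosing; survival scored; ratio of treated to control reported.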

[1] = dose: 100.0 mg/kg/injection, schedule: Q04DX003 (ip), vehicle: saline with Tween-80
[2] = dose: 200.0 mg/kg/injection, schedule: Q04DX003 (ip), vehicle: saline with Tween-80
[3] = dose: 400.0 mg/kg/injection, schedule: Q04DX003 (ip), vehicle: saline with Tween-80
[4] = dose: 100.0 mg/kg/injection, schedule: Q01DX009 (ip), vehicle: saline with Tween-80
[5] = dose: 100.0 mg/kg/injection, schedule: Q04DX003 (ip), vehicle: Klucel (hydroxypropylcellulose) (HPC)
[6] = dose: 200.0 mg/kg/injection, schedule: Q04DX003 (ip), vehicle: Klucel (hydroxypropylcellulose) (HPC)
[7] = dose: 400.0 mg/kg/injection, schedule: Q04DX003 (ip), vehicle: Klucel (hydroxypropylcellulose) (HPC)
[8] = dose: 50.0 mg/kg/injection, schedule: Q04DX003 (ip), vehicle: saline with Tween-80
[9] = dose: 12.5 mg/kg/injection, schedule: Q01DX009 (ip), vehicle: saline
[10] = dose: 25.0 mg/kg/injection, schedule: Q01DX009 (ip), vehicle: saline
[11] = dose: 50.0 mg/kg/injection, schedule: Q01DX009 (ip), vehicle: saline
[12] = dose: 100.0 mg/kg/injection, schedule: Q01DX009 (ip), vehicle: saline

ClCCN(CCCl)CCCN1c2ccccc2Sc2ccccc21
T/C (dose: 3.12 mg/kg/injection, schedule: Q04DX003 (ip), vehicle: saline with Tween-80): 150 % of control | T/C (dose: 12.5 mg/kg/injection, schedule: Q04DX003 (ip), vehicle: saline with Tween-80): 158 % of control and 169 % of control | T/C (dose: 25.0 mg/kg/injection, schedule: Q04DX003 (ip), vehicle: saline with Tween-80): 152 % of control

COC1OC(COC(=O)c2ccccc2)C(OC(=O)c2ccccc2)C(OC(=O)c2ccccc2)C1OC(=O)c1ccccc1 (centres undefined)
T/C [1]: 91 % of control | T/C [2]: 91 % of control | T/C [3]: 91 % of control

CCCCOCN(CCCc1ccccc1)COCCCC
T/C [4]: 121 % of control

O=C(Cl)C1CC2c3ccccc3C1([N+](=O)[O-])c1ccccc12 (centres undefined)
T/C [5]: 104 % of control | T/C [6]: 100 % of control | T/C [7]: 113 % of control

C=CC(C)(C)c1cc2cc3c(cc2oc1=O)OC(C(C)(C)OC(C)=O)C3 (centres undefined)
T/C (dose: 100.0 mg/kg/injection, schedule: Q04DX003 (ip), vehicle: saline): 107 % of control | T/C (dose: 200.0 mg/kg/injection, schedule: Q04DX003 (ip), vehicle: saline): 104 % of control

COc1cc2c3c(c1)/C(=N\N)CCN3CCC2
T/C (dose: 25.0 mg/kg/injection, schedule: Q01DX009 (ip), vehicle: saline with Tween-80): 110 % of control | T/C (dose: 50.0 mg/kg/injection, schedule: Q01DX009 (ip), vehicle: saline with Tween-80): 110 % of control | T/C [8]: 113 % of control | T/C [4]: 100 % of control | T/C [1]: 95 % of control | T/C [2]: 100 % of control

CC(NC(C)(C)C)C(=O)c1cccc(Cl)c1 (centres undefined)
T/C [9]: 108 % of control | T/C [10]: 112 % of control | T/C [11]: 105 % of control

CC(CCCSC(=N)N)SC(=N)N (centres undefined)
T/C [9]: 103 % of control | T/C [10]: 96 % of control and 105 % of control | T/C [11]: 97 % of control and 122 % of control | T/C [12]: 102 % of control and 103 % of control

C1=C(c2ccccc2)[P+](c2ccccc2)(c2ccccc2)C=C(c2ccccc2)[P+]1(c1ccccc1)c1ccccc1
T/C (dose: 11.0 mg/kg/injection, schedule: Q04DX003 (ip), vehicle: saline): 115 % of control | T/C (dose: 12.5 mg/kg/injection, schedule: Q04DX003 (ip), vehicle: saline): 123 % of control | T/C (dose: 17.0 mg/kg/injection, schedule: Q04DX003 (ip), vehicle: saline): 123 % of control | T/C (dose: 37.0 mg/kg/injection, schedule: Q04DX003 (ip), vehicle: saline): 100 % of control | T/C (dose: 50.0 mg/kg/injection, schedule: Q04DX003 (ip), vehicle: saline): 119 % of control

C[C@]12CC[C@H]3[C@@H](CC[C@]4(O)C[C@@H](O)CC[C@]34C=O)[C@@]1(O)CC[C@@H]2c1ccc(=O)oc1
T/C (dose: 13.7 mg/kg/injection, schedule: Q01DX010 (ip), vehicle: carboxymethylcellulose (CMC)): 95 % of control | T/C (dose: 27.5 mg/kg/injection, schedule: Q01DX010 (ip), vehicle: carboxymethylcellulose (CMC)): 100 % of control

CCCNC(C)(C)C(SS)c1ccc(Cl)cc1 (centres undefined)
T/C [8]: 109 % of control | T/C [1]: 104 % of control | T/C [2]: 109 % of control

CC1OC(Oc2c(-c3ccc(O)c(O)c3)oc3cc(O)cc(O)c3c2=O)C(O)C(O)C1O (centres undefined)
T/C [4]: 109 % of control | T/C [1]: 113 % of control | T/C (dose: 200.0 mg/kg/injection, schedule: Q01DX009 (ip), vehicle: saline with Tween-80): 104 % of control | T/C [2]: 109 % of control | T/C (dose: 264.0 mg/kg/injection, schedule: Q04DX003 (ip), vehicle: saline with Tween-80): 104 % of control | T/C (dose: 400.0 mg/kg/injection, schedule: Q01DX009 (ip), vehicle: saline with Tween-80): 118 % of control | T/C [3]: 104 % of control | T/C (dose: 600.0 mg/kg/injection, schedule: Q04DX003 (ip), vehicle: saline with Tween-80): 104 % of control

Brc1ccc(C#Cc2ccccc2)cc1
T/C (dose: 100.0 mg/kg/injection, schedule: Q01DX001 (ip), vehicle: Klucel (hydroxypropylcellulose) (HPC)): 104 % of control | T/C (dose: 200.0 mg/kg/injection, schedule: Q01DX001 (ip), vehicle: Klucel (hydroxypropylcellulose) (HPC)): 108 % of control | T/C (dose: 400.0 mg/kg/injection, schedule: Q01DX001 (ip), vehicle: Klucel (hydroxypropylcellulose) (HPC)): 108 % of control

COc1cc2c(cc1OC)C(=O)C(C(=O)c1ccccc1)C2 (centres undefined)
T/C (dose: 100.0 mg/kg/injection, schedule: Q01DX009 (ip), vehicle: Klucel (hydroxypropylcellulose) (HPC)): 100 % of control | T/C [5]: 100 % of control | T/C (dose: 200.0 mg/kg/injection, schedule: Q01DX009 (ip), vehicle: Klucel (hydroxypropylcellulose) (HPC)): 100 % of control | T/C [6]: 100 % of control | T/C (dose: 400.0 mg/kg/injection, schedule: Q01DX009 (ip), vehicle: Klucel (hydroxypropylcellulose) (HPC)): 91 % of control | T/C [7]: 112 % of control

COC(=O)c1nc(-c2ccc3c(n2)C(=O)C(N)=C(OC)C3=O)c(N)c(-c2ccc(OC)c(OC)c2O)c1C
T/C (dose: 4.0 mg/kg/injection, schedule: Q01DX009 (ip), vehicle: saline with Tween-80): 250 % of control | T/C (dose: 6.0 mg/kg/injection, schedule: Q01DX009 (ip), vehicle: saline with Tween-80): 183 % of control | T/C (dose: 9.0 mg/kg/injection, schedule: Q01DX009 (ip), vehicle: saline with Tween-80): 162 % of control

O=c1[nH]c2c(ccc3cccnc32)c2c1CCC2
T/C [1]: 92 % of control | T/C [3]: 93 % of control

COc1cccc(/C=N\O)c1
T/C [1]: 104 % of control | T/C [2]: 100 % of control | T/C [3]: 104 % of control

S=C(Nc1cc2c3c(c1)CCCN3CCC2)Nc1cc2c3c(c1)CCCN3CCC2
T/C (dose: 100.0 mg/kg/injection, schedule: Q01DX001 (ip), vehicle: saline with Tween-80): 109 % of control | T/C (dose: 200.0 mg/kg/injection, schedule: Q01DX001 (ip), vehicle: saline with Tween-80): 100 % of control | T/C (dose: 400.0 mg/kg/injection, schedule: Q01DX001 (ip), vehicle: saline with Tween-80): 95 % of control

O=C1CN(CCN2CC(=O)NC(=O)C2)CC(=O)N1
T/C (dose: 3.12 mg/kg/injection, schedule: Q03HX024 (ip), vehicle: steriod suspending solution): 105 % of control | T/C (dose: 6.25 mg/kg/injection, schedule: Q03HX024 (ip), vehicle: steriod suspending solution): 117 % of control | T/C (dose: 12.5 mg/kg/injection, schedule: Q01DX009 (ip), vehicle: steriod suspending solution): 94 % of control | T/C (dose: 12.5 mg/kg/injection, schedule: Q03HX024 (ip), vehicle: steriod suspending solution): 152 % of control | T/C (dose: 15.0 mg/kg/injection, schedule: Q01DX010 (ip), vehicle: saline): 314 % of control and 222 % of control | T/C (dose: 25.0 mg/kg/injection, schedule: Q01DX009 (ip), vehicle: steriod suspending solution): 105 % of control | T/C (dose: 25.0 mg/kg/injection, schedule: Q03HX024 (ip), vehicle: steriod suspending solution): 152 % of control | T/C (dose: 30.0 mg/kg/injection, schedule: Q01DX010 (ip), vehicle: saline): 272 % of control and 176 % of control | T/C (dose: 50.0 mg/kg/injection, schedule: Q03HX024 (ip), vehicle: steriod suspending solution): 123 % of control | T/C (dose: 60.0 mg/kg/injection, schedule: Q01DX010 (ip), vehicle: saline): 118 % of control and 219 % of control | T/C (dose: 100.0 mg/kg/injection, schedule: Q01DX001 (ip), vehicle: steriod suspending solution): 100 % of control | T/C (dose: 100.0 mg/kg/injection, schedule: Q01DX009 (ip), vehicle: steriod suspending solution): 164 % of control | T/C (dose: 100.0 mg/kg/injection, schedule: Q04DX003 (ip), vehicle: steriod suspending solution): 105 % of control | T/C (dose: 200.0 mg/kg/injection, schedule: Q01DX001 (ip), vehicle: steriod suspending solution): 105 % of control | T/C (dose: 200.0 mg/kg/injection, schedule: Q04DX003 (ip), vehicle: steriod suspending solution): 111 % of control | T/C (dose: 400.0 mg/kg/injection, schedule: Q01DX001 (ip), vehicle: steriod suspending solution): 111 % of control | T/C (dose: 800.0 mg/kg/injection, schedule: Q01DX001 (ip), vehicle: steriod suspending solution): 117 % of control | T/C (dose: 800.0 mg/kg/injection, schedule: Q04DX003 (ip), vehicle: steriod suspending solution): 182 % of control

CCOC(=O)C(=CC(CC)(C(=O)OCC)C(=O)OCC)C(=O)OCC
T/C [12]: 95 % of control | T/C (dose: 200.0 mg/kg/injection, schedule: Q01DX009 (ip), vehicle: saline): 104 % of control | T/C (dose: 400.0 mg/kg/injection, schedule: Q01DX009 (ip), vehicle: saline): 104 % of control
